Results as given in the NIST ThermoML archive (doi:10.1016/j.jct.2005.10.019).

Key:
[1] = excess molar enthalpy (molar enthalpy of mixing); xn = mol fraction of the nth substance listed; conditions: 298.15 K, 101 kPa, Liquid
[2] = 298.15 K; 101.33 kPa; Liquid

C[C@H](N)c1ccccc1 [(S)-(-)-αmethylbenzylamine] + C[C@@H](N)c1ccccc1
[1]
Conditions | excess molar enthalpy [kcal/mol]
x1 = 0.0173 | 0.000147
x1 = 0.03401 | 0.000288
x1 = 0.05015 | 0.000417
x1 = 0.06577 | 0.000537
x1 = 0.08089 | 0.000641
x1 = 0.09552 | 0.000748
x1 = 0.1097 | 0.000848
x1 = 0.1234 | 0.000939
x1 = 0.1368 | 0.00102
x1 = 0.1408 | 0.00107
x1 = 0.1497 | 0.0011
x1 = 0.1622 | 0.00119
x1 = 0.1744 | 0.00126
x1 = 0.1862 | 0.00133
x1 = 0.2469 | 0.00163
x1 = 0.3297 | 0.00195
x1 = 0.384 | 0.00208
x1 = 0.4161 | 0.00213
x1 = 0.4539 | 0.00216
x1 = 0.555 | 0.00216
x1 = 0.6244 | 0.00208
x1 = 0.7138 | 0.00181
x1 = 0.8027 | 0.00132
x1 = 0.815 | 0.00125
x1 = 0.841 | 0.0011
x1 = 0.8546 | 0.00102
x1 = 0.8686 | 0.000935
x1 = 0.8831 | 0.00084
x1 = 0.8981 | 0.00074
x1 = 0.9136 | 0.000631
x1 = 0.9297 | 0.000527
x1 = 0.9463 | 0.000409
x1 = 0.9636 | 0.000273
x1 = 0.9814 | 0.000116

C[C@@H](N)c1ccccc1 [(R)-(+)-α-methylbenzylamine]
Conditions | mass density [kg/m3]
[2] | 965.38

C[C@H](NCc1ccccc1)c1ccccc1 [(S)-N-benzyl-1-phenylethylamine]
Conditions | mass density [kg/m3]
[2] | 1007.9

ClC[C@H]1CO1 [(2R)-(chloromethyl)-oxirane] + ClC[C@@H]1CO1
[1]
Conditions | excess molar enthalpy [kcal/mol]
x2 = 0.01821 | 0.000204
x2 = 0.03578 | 0.000396
x2 = 0.05272 | 0.000577
x2 = 0.05939 | 0.000663
x2 = 0.06908 | 0.000741
x2 = 0.08489 | 0.000891
x2 = 0.1002 | 0.00103
x2 = 0.1121 | 0.00114
x2 = 0.1149 | 0.00116
x2 = 0.1292 | 0.00128
x2 = 0.1373 | 0.00133
x2 = 0.1431 | 0.00139
x2 = 0.1565 | 0.0015
x2 = 0.1593 | 0.00151
x2 = 0.1695 | 0.00159
x2 = 0.1706 | 0.00162
x2 = 0.1821 | 0.00169
x2 = 0.1943 | 0.00178
x2 = 0.2016 | 0.00181
x2 = 0.2399 | 0.00203
x2 = 0.2414 | 0.00209
x2 = 0.2748 | 0.00227
x2 = 0.2915 | 0.00239
x2 = 0.3065 | 0.00236
x2 = 0.3231 | 0.0025
x2 = 0.3356 | 0.00249
x2 = 0.3624 | 0.00263
x2 = 0.3693 | 0.00266
x2 = 0.3816 | 0.00275
x2 = 0.387 | 0.0027
x2 = 0.3889 | 0.00272
x2 = 0.4009 | 0.00275
x2 = 0.4099 | 0.00279
x2 = 0.417 | 0.00276
x2 = 0.4311 | 0.00279
x2 = 0.4384 | 0.00282
x2 = 0.4431 | 0.00282
x2 = 0.4498 | 0.00286
x2 = 0.4508 | 0.00278
x2 = 0.4514 | 0.00285
x2 = 0.4837 | 0.00286
x2 = 0.4882 | 0.00289
x2 = 0.4884 | 0.00286
x2 = 0.5071 | 0.00291
x2 = 0.5269 | 0.00284
x2 = 0.5337 | 0.00287
x2 = 0.5394 | 0.00285
x2 = 0.5525 | 0.00286
x2 = 0.5886 | 0.0028
x2 = 0.5902 | 0.00281
x2 = 0.6096 | 0.00273
x2 = 0.6221 | 0.00272
x2 = 0.6561 | 0.00261
x2 = 0.7008 | 0.0024
x2 = 0.741 | 0.00221
x2 = 0.7793 | 0.00196
x2 = 0.7927 | 0.00187
x2 = 0.8067 | 0.00171
x2 = 0.8211 | 0.00161
x2 = 0.8241 | 0.00165
x2 = 0.8361 | 0.00151
x2 = 0.8513 | 0.00144
x2 = 0.8516 | 0.00137
x2 = 0.8677 | 0.00129
x2 = 0.8844 | 0.00113
x2 = 0.9018 | 0.000956
x2 = 0.9198 | 0.000791
x2 = 0.9387 | 0.000621
x2 = 0.9583 | 0.000422
x2 = 0.9787 | 0.000218

C[C@@H]1COC(=O)O1 [(R)-4-methyl-1,3-dioxolan-2-one] + C[C@H]1COC(=O)O1
[1]
Conditions | excess molar enthalpy [kcal/mol]
x2 = 0.02206 | -0.000169
x2 = 0.04317 | -0.000327
x2 = 0.06338 | -0.00048
x2 = 0.06919 | -0.00046
x2 = 0.08276 | -0.000615
x2 = 0.1014 | -0.000734
x2 = 0.1192 | -0.000848
x2 = 0.1294 | -0.000859
x2 = 0.1364 | -0.000953
x2 = 0.1529 | -0.00105
x2 = 0.1688 | -0.00114
x2 = 0.1823 | -0.00115
x2 = 0.1841 | -0.00122
x2 = 0.1988 | -0.00129
x2 = 0.213 | -0.00136
x2 = 0.2268 | -0.00142
x2 = 0.2292 | -0.00143
x2 = 0.2709 | -0.00163
x2 = 0.3084 | -0.0017
x2 = 0.3422 | -0.00178
x2 = 0.3673 | -0.00185
x2 = 0.3729 | -0.00186
x2 = 0.3988 | -0.00191
x2 = 0.4008 | -0.00191
x2 = 0.4264 | -0.00196
x2 = 0.4363 | -0.00197
x2 = 0.4366 | -0.00198
x2 = 0.4627 | -0.00203
x2 = 0.4815 | -0.00201
x2 = 0.4921 | -0.00205
x2 = 0.5254 | -0.00205
x2 = 0.5372 | -0.00199
x2 = 0.5551 | -0.002
x2 = 0.5959 | -0.00197
x2 = 0.6186 | -0.00195
x2 = 0.6431 | -0.00192
x2 = 0.6596 | -0.00184
x2 = 0.6697 | -0.00184
x2 = 0.6985 | -0.00176
x2 = 0.699 | -0.0017
x2 = 0.7209 | -0.00166
x2 = 0.73 | -0.00162
x2 = 0.7641 | -0.00146
x2 = 0.7644 | -0.00151
x2 = 0.7782 | -0.0014
x2 = 0.7929 | -0.00133
x2 = 0.7949 | -0.00133
x2 = 0.7997 | -0.00129
x2 = 0.8022 | -0.00132
x2 = 0.8081 | -0.00126
x2 = 0.8122 | -0.00124
x2 = 0.8228 | -0.00114
x2 = 0.8239 | -0.00118
x2 = 0.8252 | -0.00118
x2 = 0.8385 | -0.00111
x2 = 0.8404 | -0.00109
x2 = 0.8439 | -0.00109
x2 = 0.8522 | -0.00104
x2 = 0.8575 | -0.000996
x2 = 0.8665 | -0.000943
x2 = 0.8753 | -0.00089
x2 = 0.8812 | -0.000858
x2 = 0.8857 | -0.000833
x2 = 0.8902 | -0.000801
x2 = 0.8939 | -0.000772
x2 = 0.8964 | -0.000764
x2 = 0.9121 | -0.00066
x2 = 0.9133 | -0.000646
x2 = 0.9285 | -0.000551
x2 = 0.9335 | -0.000502
x2 = 0.9419 | -0.00044
x2 = 0.9454 | -0.000425
x2 = 0.9547 | -0.00035
x2 = 0.9629 | -0.000295
x2 = 0.9768 | -0.000184
x2 = 0.9811 | -0.000151
